Earlier results, collected in PubChem BioAssay AID1259409 (Chemical Carcinogenesis Research Information System (CCRIS), 2018).

Tested on: rodent chemically induced tumor inhibition, incidence and multiplicity
Test: CCRIS tumor inhibitor studies

For `CC(=O)O[C@]1(C(C)=O)CC[C@H]2[C@@H]3C[C@H](C)C4=CC(=O)CC[C@]4(C)[C@H]3CC[C@@]21C`, the “tumour outcome (control, treated, inhibition, significance)” value (Carcinogen: 7,12-DIMETHYLBENZ[A]ANTHRACENE, 57-97-6, Dose [Inhibitor]: 0, 30 MG (AS DEPO-PROVERA) ONCE 3 WK POST CARCINOGEN DOSE (STUDY DURATION: 85 D), Route [Inhibitor]: SUBCUTANEOUS, Species: RAT, Strain/Sex: SPRAGUE-DAWLEY/FEMALE, Target Tissue: Type of Lesion: MAMMARY GLAND: TUMOR, Dose [Carcinogen]: 20 MG IN 1 ML CORN OIL ONCE, Promoter: NONE USED) is given as 63%, 49%, 22%, not calculated, the “tumour outcome (control, treated, inhibition, significance)” value (Carcinogen: 7,12-DIMETHYLBENZ[A]ANTHRACENE, 57-97-6, Dose [Inhibitor]: 0, 30 MG (AS DEPO-PROVERA) ONCE 7 D PRIOR TO CARCINOGEN DOSE (STUDY DURATION: 92 D), Route [Inhibitor]: SUBCUTANEOUS, Species: RAT, Strain/Sex: SPRAGUE-DAWLEY/FEMALE, Target Tissue: Type of Lesion: MAMMARY GLAND: TUMOR, Dose [Carcinogen]: 20 MG IN 1 ML CORN OIL ONCE, Promoter: NONE USED) is given as 63%, 28%, 56%, not calculated and the “tumour outcome (control, treated, inhibition, significance)” value (Carcinogen: 7,12-DIMETHYLBENZ[A]ANTHRACENE, 57-97-6, Dose [Inhibitor]: 0, 30 MG (MICROSPHERES) ONCE 7 D PRIOR TO CARCINOGEN DOSE (STUDY DURATION: 92 D), Route [Inhibitor]: SUBCUTANEOUS, Species: RAT, Strain/Sex: SPRAGUE-DAWLEY/FEMALE, Target Tissue: Type of Lesion: MAMMARY GLAND: TUMOR, Dose [Carcinogen]: 20 MG IN 1 ML CORN OIL ONCE, Promoter: NONE USED) is given as 63%, 7%, 89%, not calculated. For the same molecule, the “tumour outcome (control, treated, inhibition, significance)” value (Carcinogen: 7,12-DIMETHYLBENZ[A]ANTHRACENE, 57-97-6, Dose [Inhibitor]: 0, 100 MG (AS DEPO-PROVERA) ONCE 3 WK POST CARCINOGEN DOSE (STUDY DURATION: 85 WK), Route [Inhibitor]: SUBCUTANEOUS, Species: RAT, Strain/Sex: SPRAGUE-DAWLEY/FEMALE, Target Tissue: Type of Lesion: MAMMARY GLAND: TUMOR, Dose [Carcinogen]: 20 MG IN 1 ML CORN OIL ONCE, Promoter: NONE USED) was 63%, 29%, 54%, not calculated, the “tumour outcome (control, treated, inhibition, significance)” value (Carcinogen: 7,12-DIMETHYLBENZ[A]ANTHRACENE, 57-97-6, Dose [Inhibitor]: 0, 100 MG (AS DEPO-PROVERA) ONCE 7 D PRIOR TO CARCINOGEN DOSE (STUDY DURATION: 92 D), Route [Inhibitor]: SUBCUTANEOUS, Species: RAT, Strain/Sex: SPRAGUE-DAWLEY/FEMALE, Target Tissue: Type of Lesion: MAMMARY GLAND: TUMOR, Dose [Carcinogen]: 20 MG IN 1 ML CORN OIL ONCE, Promoter: NONE USED) was 63%, 23%, 63%, not calculated and the “tumour outcome (control, treated, inhibition, significance)” value (Carcinogen: 7,12-DIMETHYLBENZ[A]ANTHRACENE, 57-97-6, Dose [Inhibitor]: 0, 100 MG (MICROSPHERES) ONCE 7 D PRIOR TO CARCINOGEN DOSE (STUDY DURATION: 92 D), Route [Inhibitor]: SUBCUTANEOUS, Species: RAT, Strain/Sex: SPRAGUE-DAWLEY/FEMALE, Target Tissue: Type of Lesion: MAMMARY GLAND: TUMOR, Dose [Carcinogen]: 20 MG IN 1 ML CORN OIL ONCE, Promoter: NONE USED) was 63%, 6%, 90%, not calculated. The “tumour outcome (control, treated, inhibition, significance)” value (Carcinogen: METHYLNITROSOUREA, 684-93-5, Dose [Inhibitor]: 0, 40 MG DEPOT EVERY 2 MO (STUDY DURATION: 345 D), Route [Inhibitor]: SUBCUTANEOUS, Species: MOUSE, Strain/Sex: BALB/FEMALE, Target Tissue: Type of Lesion: HEMATOPOIETIC SYSTEM: LYMPHOMA, Dose [Carcinogen]: 50 MG/KG BW ONCE 15 D POST INHIBITOR REMOVAL, Promoter: NONE) was 18/28 (65%), 5/35 (17%), 74%, p<0.05, the “tumour outcome (control, treated, inhibition, significance)” value (Carcinogen: METHYLNITROSOUREA, 684-93-5, Dose [Inhibitor]: 0, 40 MG DEPOT EVERY 2 MO (STUDY DURATION: 345 D), Route [Inhibitor]: SUBCUTANEOUS, Species: MOUSE, Strain/Sex: BALB/FEMALE, Target Tissue: Type of Lesion: LUNG: TUMOR, Dose [Carcinogen]: 50 MG/KG BW ONCE 15 D POST INHIBITOR REMOVAL, Promoter: NONE) was 24/28 (86%), 28/31 (89%), -3%, not significant and the “tumour outcome (control, treated, inhibition, significance)” value (Carcinogen: METHYLNITROSOUREA, 684-93-5, Dose [Inhibitor]: 0, 40 MG DEPOT EVERY 3 MO (STUDY DURATION: 277 D), Route [Inhibitor]: SUBCUTANEOUS, Species: MOUSE, Strain/Sex: BALB/FEMALE, Target Tissue: Type of Lesion: HEMATOPOIETIC SYSTEM: LYMPHOMA, Dose [Carcinogen]: 50 MG/KG BW ONCE 1 WK POST INHIBITOR FIRST DOSE, Promoter: NONE) was 18/28 (65%), 7/35 (19%), 71%, p<0.05. The “tumour outcome (control, treated, inhibition, significance)” value (Carcinogen: METHYLNITROSOUREA, 684-93-5, Dose [Inhibitor]: 0, 40 MG DEPOT EVERY 3 MO (STUDY DURATION: 277 D), Route [Inhibitor]: SUBCUTANEOUS, Species: MOUSE, Strain/Sex: BALB/FEMALE, Target Tissue: Type of Lesion: LUNG: TUMOR, Dose [Carcinogen]: 50 MG/KG BW ONCE 1 WK POST INHIBITOR FIRST DOSE, Promoter: NONE) was 24/28 (86%), 31/35 (88%), -2%, not significant, the “tumour outcome (control, treated, inhibition, significance)” value (Carcinogen: METHYLNITROSOUREA, 684-93-5, Dose [Inhibitor]: 0, 40 MG DEPOT EVERY 3 MO BEGINNING 1 WK POST CARCINOGEN (STUDY DURATION: 9 MO), Route [Inhibitor]: SUBCUTANEOUS, Species: MOUSE, Strain/Sex: BALB/FEMALE, Target Tissue: Type of Lesion: HEMATOPOIETIC SYSTEM: LYMPHOMA, Dose [Carcinogen]: 50 MG/KG BW ONCE, Promoter: NONE) was 18/28 (65%), 7/50 (15%), 77%, p<0.05 and the “tumour outcome (control, treated, inhibition, significance)” value (Carcinogen: METHYLNITROSOUREA, 684-93-5, Dose [Inhibitor]: 0, 40 MG DEPOT EVERY 3 MO BEGINNING 1 WK POST CARCINOGEN (STUDY DURATION: 9 MO), Route [Inhibitor]: SUBCUTANEOUS, Species: MOUSE, Strain/Sex: BALB/FEMALE, Target Tissue: Type of Lesion: LUNG: TUMOR, Dose [Carcinogen]: 50 MG/KG BW ONCE, Promoter: NONE) was 24/28 (86%), 44/50 (89%), -3%, not significant. The “tumour outcome (control, treated, inhibition, significance)” value (Carcinogen: METHYLNITROSOUREA, 684-93-5, Dose [Inhibitor]: 0, 40 MG DEPOT FOR 2 MO BEGINNING 1 WK POST CARCINOGEN (STUDY DURATION: 9 MO), Route [Inhibitor]: SUBCUTANEOUS, Species: MOUSE, Strain/Sex: BALB/FEMALE, Target Tissue: Type of Lesion: HEMATOPOIETIC SYSTEM: LYMPHOMA, Dose [Carcinogen]: 50 MG/KG BW ONCE, Promoter: NONE) was 18/28 (65%), 7/27 (26%), 60%, p<0.05 and the “tumour outcome (control, treated, inhibition, significance)” value (Carcinogen: METHYLNITROSOUREA, 684-93-5, Dose [Inhibitor]: 0, 40 MG DEPOT FOR 2 MO BEGINNING 1 WK POST CARCINOGEN (STUDY DURATION: 9 MO), Route [Inhibitor]: SUBCUTANEOUS, Species: MOUSE, Strain/Sex: BALB/FEMALE, Target Tissue: Type of Lesion: LUNG: TUMOR, Dose [Carcinogen]: 50 MG/KG BW ONCE, Promoter: NONE) was 24/28 (86%), 23/27 (85%), 0%, not significant.

For `C[C@@]12C[C@@]3(O)O[C@@H](O1)[C@]1(COC(=O)c4ccccc4)[C@H]3C[C@@]12O[C@@H]1O[C@H](CO)[C@@H](O)[C@H](O)[C@H]1O`, the “tumour outcome (control, treated, inhibition, significance)” value (Carcinogen: AZOXYMETHANE, 25843-45-2, Dose [Inhibitor]: 0, 0.02% IN DIET IN WK 1-3 OF STUDY FOLLOWED BY BASAL DIET FOR DURATION OF STUDY (STUDY DURATION: 1 YR), Route [Inhibitor]: ORAL, Species: RAT, Strain/Sex: F344/MALE, Target Tissue: Type of Lesion: LARGE INTESTINE: ADENOCARCINOMA, Dose [Carcinogen]: 15 MG/KG BW 1/WK IN WK 1 AND 2 OF STUDY, Promoter: NONE USED) is given as 13/27 (48%), 5/28 (18%), 63%, not significant and the “tumour outcome (control, treated, inhibition, significance)” value (Carcinogen: AZOXYMETHANE, 25843-45-2, Dose [Inhibitor]: 0, 0.02% IN DIET IN WK 1-3 OF STUDY FOLLOWED BY BASAL DIET FOR DURATION OF STUDY (STUDY DURATION: 1 YR), Route [Inhibitor]: ORAL, Species: RAT, Strain/Sex: F344/MALE, Target Tissue: Type of Lesion: LARGE INTESTINE: ADENOMA, Dose [Carcinogen]: 15 MG/KG BW 1/WK IN WK 1 AND 2 OF STUDY, Promoter: NONE USED) is given as 6/27 (22%), 9/28 (32%), -45%, not significant.

For `O=c1oc2ccccc2c(O)c1Cc1c(O)c2ccccc2oc1=O`, the “tumour outcome (control, treated, inhibition, significance)” value (Carcinogen: 17BETA-ESTRADIOL, 50-28-2, Dose [Inhibitor]: 0, 0.09% IN DIET BEGINNING 5 D POST CARCINOGEN DOSE (STUDY DURATION: 7.5 MO), Route [Inhibitor]: ORAL, Species: HAMSTER, Strain/Sex: SYRIAN/MALE, Target Tissue: Type of Lesion: KIDNEY: TUMOR, Dose [Carcinogen]: 25 MG PELLET REPLACED WITH A SECOND PELLET AFTER 4 MO, Promoter: NONE USED) is listed as 13/13 (100%), 7/12 (58%), 42%, p<0.05.

For `Clc1cccc(-c2ccc(Cl)c(Cl)c2Cl)c1Cl`, the “tumour outcome (control, treated, inhibition, significance)” value (Carcinogen: DIETHYLNITROSAMINE, 55-18-5, Dose [Inhibitor]: 100 PPM IN DIET FOR 6 WK PRIOR TO CARCINOGEN DOSE (STUDY DURATION: 48 WK), Route [Inhibitor]: ORAL, Species: FISH, Strain/Sex: MT. SHASTA RAINBOW/MALE, FEMALE, Target Tissue: Type of Lesion: LIVER: HEPATOCELLULAR CARCINOMA AND HEPATOCHOLANGIOCELLULAR CARCINOMA, Dose [Carcinogen]: 250 PPM IN AQUEOUS SOLUTION FOR 24 HR, Promoter: NONE USED) is given as 105/131 (80%), 112/140 (80%), 0%, not significant.

In the case of `CCCC(C(=O)OCCN(CC)CC)(c1ccccc1)c1ccccc1`, the “tumour outcome (control, treated, inhibition, significance)” value (Carcinogen: URETHANE, 51-79-6, Dose [Inhibitor]: 0, 50 MG/KG ONCE AT 24 HR AND 1 HR PRIOR TO CARCINOGEN DOSE THEN ONCE 24 HR AND 48 HR POST CARCINOGEN DOSE (STUDY DURATI, Route [Inhibitor]: INTRAPERITONEAL, Species: MOUSE, Strain/Sex: BALB/MALE, FEMALE, Target Tissue: Type of Lesion: LUNG: TUMOR, Dose [Carcinogen]: 0.5 G/KG IN 0.9% SALINE ONCE, Promoter: NONE USED) is listed as 94%, 91%, 3%, not significant.
